“And” between values parts separate entries of the source, which are not always exact repeats. Identical values can stand only once.
Legend:
Pancreas GK = target: T1, Pancreas GK (Homo sapiens, UniProt P35557); assay: Glucokinase enzyme assay, pancreas GK; assay type: biochemical; details: for EC50: concentration that produces 50% activation above the vehicle control; for EC100%: concentration that produces 100% activation above the vehicle control; for activation at 50 µM: percentage increase in GK activity above vehicle control, compound 50 μM, 12 mM glucose
T1 construct: (His)6; made in house; host or cells: Escherichia coli
T1 sequence (P35557 1-465): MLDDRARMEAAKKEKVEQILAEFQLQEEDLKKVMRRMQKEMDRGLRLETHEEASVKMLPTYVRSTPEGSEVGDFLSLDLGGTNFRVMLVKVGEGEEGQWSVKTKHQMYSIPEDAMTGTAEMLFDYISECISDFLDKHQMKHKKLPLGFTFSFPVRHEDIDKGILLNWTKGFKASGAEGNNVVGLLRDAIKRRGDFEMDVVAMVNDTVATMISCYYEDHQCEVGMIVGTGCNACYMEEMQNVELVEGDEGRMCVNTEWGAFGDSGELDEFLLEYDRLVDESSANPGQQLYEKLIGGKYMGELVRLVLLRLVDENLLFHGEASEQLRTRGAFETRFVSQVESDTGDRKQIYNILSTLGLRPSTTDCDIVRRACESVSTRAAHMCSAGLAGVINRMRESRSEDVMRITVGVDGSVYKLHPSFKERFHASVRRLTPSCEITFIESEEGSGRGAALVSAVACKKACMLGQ
Text: (§1) An enzymatic Glucokinase (GK) assay using purified recombinant human liver/pancreas enzyme was used to evaluate the effects of potential small molecule modulators.
(§2) In this assay, GK catalyzes glucose phosphorylation in the presence of ATP. The product of this reaction, glucose-6-phosphate, was then oxidized by an excess of glucose-6-phosphate dehydrogenase to produce gluconate-6-phosphate with concomitant reduction of nicotinamide adenine dinucleotide (NAD). […] Human GK (Liver/Pancreas) was expressed in Escherichia coli as a (His) 6-tagged fusion protein and was purified by metal chelate affinity chromatography. The assay was performed in a final incubation volume of 80 μl in a 96-well clear low UV absorption plates. The incubation mixture consisted of 25 mM HEPES, 2 mM MgSO4, 1 mM dithiothreotol (DTT), 1 mg/mL bovine serum albumin (BSA), 1 mM ATP, 1 mM NAD, and 12 mM glucose, 10 units per mL glucose-6-phosphate dehydrogenase, and +/−300 ng per mL GK. For determination of the affinity (Km) and Vmax, different concentrations of glucose ranging from 0.5 mM to 40 mM were used in the assay; see Grimsby, J., Sarabu, R.; Grippo, J. F.; et. al. Science 2003, 301, 370-373. Production of reduced NAD (Nicotinamide Adenine Dinucleotide) was measured as changes in absorption at 340 nm in 96-well plate reader (Envision model #2101 Multilabel Plate reader). % Activation @ 50 μM was calculated as the percentage increase in GK activity above the vehicle control with the effective concentration of the compound being 50 μM. EC50% (μM) was calculated as the effective concentration of the compound that produces 50% activation above the vehicle control, and EC100% (μM) was calculated as the effective concentration of the compound that produces 100% activation above the vehicle control.

Liver GK = target: T2, Liver GK (Homo sapiens, UniProt P35557); assay: Glucokinase enzyme assay, liver GK; assay type: biochemical; details: for EC50: concentration that produces 50% activation above the vehicle control; for EC100%: concentration that produces 100% activation above the vehicle control; for activation at 50 µM: percentage increase in GK activity above vehicle control, compound 50 μM, 12 mM glucose
T2 construct: (His)6; made in house; host or cells: Escherichia coli
T2 sequence (P35557 1-466 isoform P35557-2): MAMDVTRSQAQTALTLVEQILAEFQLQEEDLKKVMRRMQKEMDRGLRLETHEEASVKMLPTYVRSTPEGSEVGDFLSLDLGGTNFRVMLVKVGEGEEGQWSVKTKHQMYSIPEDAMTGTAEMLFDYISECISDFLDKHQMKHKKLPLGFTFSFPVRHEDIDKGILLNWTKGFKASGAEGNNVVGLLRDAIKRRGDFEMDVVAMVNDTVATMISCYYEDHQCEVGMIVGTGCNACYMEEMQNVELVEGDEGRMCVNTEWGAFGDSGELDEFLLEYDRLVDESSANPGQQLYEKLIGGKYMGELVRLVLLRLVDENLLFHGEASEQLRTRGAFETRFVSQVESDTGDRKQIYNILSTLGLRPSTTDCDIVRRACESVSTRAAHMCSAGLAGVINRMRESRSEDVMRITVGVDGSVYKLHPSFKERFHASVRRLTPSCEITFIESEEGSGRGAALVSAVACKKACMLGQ
Text: as §1, §2

Compound: COC(=O)c1ccc(NC(=O)COC2C(C)=C(C)C(=O)N2Cc2ccc(OC)cc2)nc1 (centres unmarked) [Compound 27, 6-{2-[1-(4-Methoxy-benzyl)-3,4-dimethyl-5-oxo-2,5-dihydro-1H-pyrrol-2-yloxy]-acetylamino}-nicotinic acid methyl ester]
- EC50 (Pancreas GK): 20 µM
- EC100% (Pancreas GK): >50 µM
- EC50 (Liver GK): 14.1 µM
- EC100% (Liver GK): >50 µM
- activation at 50 µM (Liver GK): 90%

Compound: COc1ccc(CN2C(=O)C=C(C)C2SCC(=O)Nc2ccccn2)cc1 (centres unmarked) [Compound 19, 2-[1-(4-Methoxy-benzyl)-3-methyl-5-oxo-2,5-dihydro-1H-pyrrol-2-ylsulfanyl]-N-pyridin-2-yl-acetamide]
- EC50 (Pancreas GK): 15.2 µM
- EC100% (Pancreas GK): 47.3 µM
- EC50 (Liver GK): 13.8 µM
- EC100% (Liver GK): 30.5 µM

Compound: COc1ccc(CN2C(=O)C(C)=C(C)C2SCC(=O)Nc2cc(C)ccn2)cc1 (centres unmarked) [Compound 21, 2-[1-(4-Methoxy-benzyl)-3,4-dimethyl-5-oxo-2,5-dihydro-1H-pyrrol-2-ylsulfanyl]-N-(4-methyl-pyridin-2-yl)-acetamide]
- EC50 (Pancreas GK): 7.12 µM
- EC100% (Pancreas GK): 19.43 µM
- EC50 (Liver GK): 4.73 µM
- EC100% (Liver GK): 12.68 µM

Compound: COc1ccc(CN2C(=O)C(C)=C(C)C2OCC(=O)Nc2ccccn2)cc1 (centres unmarked) [Compound 30, 2-[1-(4-Methoxy-benzyl)-3,4-dimethyl-5-oxo-2,5-dihydro-1H-pyrrol-2-yloxy]-N-pyridin-2-yl-acetamide]
- EC50 (Pancreas GK): > 50 µM
- EC100% (Pancreas GK): >50 µM
- EC50 (Liver GK): 34.5 µM
- EC100% (Liver GK): >50 µM

Compound: CC1=C(C)C(SCC(=O)Nc2ccccn2)N(Cc2ccc(C(C)C)cc2)C1=O (centres unmarked) [Compound 25, 2-[1-(4-Isopropyl-benzyl)-3,4-dimethyl-5-oxo-2,5-dihydro-1H-pyrrol-2-ylsulfanyl]-N-pyridin-2-yl-acetamide]
- EC50 (Pancreas GK): 14.7 µM
- EC100% (Pancreas GK): 44.9 µM
- activation at 50 µM (Pancreas GK): 130%
- EC50 (Liver GK): 6.3 µM
- EC100% (Liver GK): 28.5 µM
- activation at 50 µM (Liver GK): 180%

Compound: COc1cc(CN2C(=O)C(C)=C(C)C2SCC(=O)Nc2ccccn2)cc(OC)c1 (centres unmarked) [Compound 29, 2-[1-(3,5-Dimethoxy-benzyl)-3,4-dimethyl-5-oxo-2,5-dihydro-1H-pyrrol-2-ylsulfanyl]-N-pyridin-2-yl-acetamide]
- EC50 (Pancreas GK): 11.8 µM
- EC100% (Pancreas GK): 41.4 µM
- EC50 (Liver GK): 7.7 µM
- EC100% (Liver GK): 26.1 µM

Compound: COc1ccc(CN2C(=O)C(C)=C(C)[C@H]2S[C@H](C)C(=O)Nc2ccccn2)cc1 (stereo in doubt) [Compound 32, 2-[1-(4-Methoxy-benzyl)-3,4-dimethyl-5-oxo-2,5-dihydro-1H-pyrrol-2-ylsulfanyl]-N-pyridin-2-yl-propionamide]
- activation at 50 µM (Pancreas GK): 24%
- activation at 50 µM (Liver GK): 37%

Compound: CC1=C(C)C(SCC(=O)Nc2ccccn2)N(Cc2ccc3c(c2)CCO3)C1=O (centres unmarked) [Compound 20, 2-[1-(2,3-Dihydro-benzofuran-5-ylmethyl)-3,4-dimethyl-5-oxo-2,5-dihydro-1H-pyrrol-2-ylsulfanyl]-N-pyridin-2-yl-acetamide]
- EC50 (Pancreas GK): 3.23 µM
- EC100% (Pancreas GK): 8.87 µM
- EC50 (Liver GK): 2.78 µM
- EC100% (Liver GK): 6.61 µM

Compound: COc1ccc(CN2C(=O)C(C)=C(C)C2OCC(=O)Nc2nccs2)cc1 (centres unmarked) [Compound 31, 2-[1-(4-Methoxy-benzyl)-3,4-dimethyl-5-oxo-2,5-dihydro-1H-pyrrol-2-yloxy]-N-thiazol-2-yl-acetamide]
- activation at 50 µM (Pancreas GK): 3%
- activation at 50 µM (Liver GK): 21%

Compound: COc1ccc(CN2C(=O)C(C)=C(C)C2SCC(=O)Nc2cccc(C)n2)cc1 (centres unmarked) [Compound 23, 2-[1-(4-Methoxy-benzyl)-3,4-dimethyl-5-oxo-2,5-dihydro-1H-pyrrol-2-ylsulfanyl]-N-(6-methyl-pyridin-2-yl)-acetamide]
- EC50 (Pancreas GK): 8.13 µM
- EC100% (Pancreas GK): 20.28 µM
- EC50 (Liver GK): 6.23 µM
- EC100% (Liver GK): 13.78 µM

Compound: CCc1ccc(CN2C(=O)C(C)=C(C)C2SCC(=O)Nc2ccccn2)cc1 (centres unmarked) [Compound 26, 2-[1-(4-Ethyl-benzyl)-3,4-dimethyl-5-oxo-2,5-dihydro-1H-pyrrol-2-ylsulfanyl]-N-pyridin-2-yl-acetamide]
- EC50 (Pancreas GK): 24 µM
- activation at 50 µM (Pancreas GK): 102%
- EC50 (Liver GK): 15.3 µM
- EC100% (Liver GK): 35.9 µM
- activation at 50 µM (Liver GK): 154%

Compound: COC(=O)c1ccc(NC(=O)CSC2C(C)=C(C)C(=O)N2Cc2ccc(OC)cc2)nc1 (centres unmarked) [Compound 1, 6-{2-[1-(4-Methoxy-benzyl)-3,4-dimethyl-5-oxo-2,5-dihydro-1H-pyrrol-2-ylsulfanyl]-acetylamino}-nicotinic acid methyl ester]
- EC50 (Pancreas GK): 0.64 µM
- EC100% (Pancreas GK): 2.23 µM
- activation at 50 µM (Pancreas GK): 287%
- EC50 (Liver GK): 0.39 µM and 0.26 µM
- EC100% (Liver GK): 1.46 µM

Compound: CCc1ccnc(NC(=O)CSC2C(C)=C(C)C(=O)N2Cc2ccc(OC)cc2)c1 (centres unmarked) [Compound 22, N-(4-Ethyl-pyridin-2-yl)-2-[1-(4-methoxy-benzyl)-3,4-dimethyl-5-oxo-2,5-dihydro-1H-pyrrol-2-ylsulfanyl]-acetamide]
- EC50 (Pancreas GK): 24.1 µM
- activation at 50 µM (Pancreas GK): 70%
- EC50 (Liver GK): 17.3 µM
- activation at 50 µM (Liver GK): 82%

Compound: COc1ccc(CN2C(=O)C(C)=C(C)C2SCC(=O)Nc2ccc(C(N)=O)cn2)cc1 (centres unmarked) [Compound 18]
- EC50 (Pancreas GK): 3.51 µM
- EC100% (Pancreas GK): 12.02 µM
- activation at 50 µM (Pancreas GK): 167%
- EC50 (Liver GK): 1.13 µM
- EC100% (Liver GK): 3.61 µM
- activation at 50 µM (Liver GK): 217%

From patent US8680122B2, “Substituted pyrrolones as allosteric modulators of glucokinase” (Janssen Pharmacetica N.V., priority 2005, dated 2014)
